Non-standard residues stand in square brackets, D forms with d. *: point of attachment. X4 = ((1S)-1-Carboxy-3-methylbutyl)carbamoyl, CC(C)C[C@H](NC(=O)*)C(=O)O; (carboxymethyl)carbamoyl = O=C(O)CNC(=O)*; 4Pal = N[C@@H](Cc1ccncc1)C(=O)O; Cha = N[C@@H](CC1CCCCC1)C(=O)O; Iva = CC[C@](C)(N)C(=O)O; Aib = CC(C)(N)C(=O)O
Columns and labels:
male C57BL/6J mouse = assay: 3-Day Continuous Subcutaneous Administration Test-2 (food intake suppressing activity); type: in vivo; conditions: 0.03 mg/kg/day, subcutaneous Alzet pump, food consumption as of 2 days after start; versus solvent (50% DMSO) control group
Experimental: (5) Test Method: 3-Day Continuous Subcutaneous Administration Test-2
The food intake suppressing activity of the compound of the present invention was examined by the following method.
The test compound was dissolved in a solvent (50% DMSO) so that sustained release would occur at 0.03 mg/kg/day, and the solution was filled in the Alzet Pump (DURECT Corporation, model: 1003D). After the filling, the pump was immersed in physiological saline for priming, and then used. The pump was embedded by the following method. Each male C57BL/6J mouse at 9-10 weeks of age (25° C., allowed to take food and water ad libitum; 12-hour bright-12-hour dark cycle) was anesthetized; the skin in the upper back thereof was incised, and the above-mentioned pump was embedded subcutaneously; the incision was sutured. After weighing, this mouse was returned to the rearing cage (reared alone), and given previously weighed food; food consumption as of 2 days after the start of administration was measured. The food consumption was calculated by subtracting the amount of remaining food from the weight of the food given on the day of the start of administration. From the food consumption obtained, the food intake suppression rate (%) of each test compound was calculated using the following the formula.
A group receiving administration of the aforementioned solvent alone was the control group.
Food intake suppression rate (%): (Food consumption for control group−food consumption for test compound administration group)/food consumption for control group×100

human Y2 receptor [1] = target: T1, human Y2 receptor (Homo sapiens, UniProt P49146); assay: Receptor Binding Assay (RBA) for Human Y2, [125I]-PYY displacement on hY2R/CHO membrane fraction; conditions: IC50 of test compound/IC50 of PYY(3-36) (PYY(3-36) taken as 1)
T1 construct: expressed in transfected cells; membrane fraction
T1 sequence (P49146 1-381): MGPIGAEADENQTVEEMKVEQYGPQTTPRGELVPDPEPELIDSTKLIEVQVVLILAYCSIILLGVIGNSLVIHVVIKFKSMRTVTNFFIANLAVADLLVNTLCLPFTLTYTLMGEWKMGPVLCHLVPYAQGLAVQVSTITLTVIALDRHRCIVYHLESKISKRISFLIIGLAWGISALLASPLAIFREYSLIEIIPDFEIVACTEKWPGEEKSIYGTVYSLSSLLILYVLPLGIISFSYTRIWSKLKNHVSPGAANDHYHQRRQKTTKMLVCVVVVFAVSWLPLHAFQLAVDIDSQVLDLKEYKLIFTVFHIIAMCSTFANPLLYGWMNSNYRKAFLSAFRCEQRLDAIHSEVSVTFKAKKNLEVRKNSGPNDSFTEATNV
How it was run: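 Read-out is [125I]-PYY displacement from membranes of CHO/dhfr− cells stably transfected with human Y2R. Membranes were obtained by disrupting cells in a buffer of 10 mM NaHCO3, 5 mM EDTA and protease inhibitors.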

male C57EL/6J mice = assay: 3-Days Continuous Subcutaneous Administration Test-1 (food intake suppressing activity); type: in vivo, mouse; conditions: 0.03 mg/kg/day, subcutaneous Alzet pump, food consumption over 3 days; relative to food intake suppression rate for PYY(3-36) (1 mg/kg/day) taken as 100%
How it was run: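 Male […] mice, 12-13 weeks, received compound at 0.03 mg/kg/day by subcutaneous osmotic pump (50% DMSO vehicle), housed singly with free food access. Food consumed over 3 days measured; suppression expressed relative to PYY(3-36) (1 mg/kg/day) set as 100%.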

human Y2 receptor [2] = target: T1, human Y2 receptor; assay: Human Y2 Receptor G Protein Binding Assay (GBA), [35S]GTPγS; type: biochemical; conditions: EC50 of test compound/EC50 of PYY(3-36) (PYY3-36 taken as 1), hY2R/CHO membrane fraction
How it was run: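 Agonism measured as [35S]GTPγS binding, read by GF/C filtration and scintillation counting after 120 min at room temperature, using human Y2 membranes at 1 μg protein/mL in pH 7.4 Tris/MgCl2/NaCl/GDP buffer. Compound serially diluted 100 μM–1 nM; EC50 normalized to PYY(3-36) (ratio = compound/PYY).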

## 4-Imidazolecarbonyl-[D-Hyp24, Iva25, Pya(4)26, Cha27,36, Leu(Me)28, Har30, Aib31]-PYY(23-36) [compound No. 367]
Male C57BL/6J mouse
  food intake suppression rate (%): 24.0%

## Ac-[Glu23, D-Pro24, Iva25, Pya(4)26, Cha27,36, Leu(Me)28, Lys30, Aib31]-PYY(23-36) [compound No. 363]
Male C57BL/6J mouse
  food intake suppression rate (%): 27.7%

## 4-Imidazolecarbonyl-[D-Pro24, Pya(4)26, Cha27,36, Iva28, Lys30, Aib31]-PYY(23-36) [compound No. 366]
Male C57BL/6J mouse
  food intake suppression rate (%): 32.9%

## 4-Imidazolecarbonyl-[D-Hyp24, Iva25, Pya(4)26, Cha27,36, Iva28, Lys30, D-Iva31]-PYY(23-36) [compound No. 372]
Male C57BL/6J mouse
  food intake suppression rate (%): 27.2%

## 4-Imidazolecarbonyl-[D-Pro24, Pya(4)26, Cha27,36, Iva28, Lys(Ac)30, Aib31]-PYY(23-36) [compound No. 371]
Male C57BL/6J mouse
  food intake suppression rate (%): 18.6%

## 4-Imidazolecarbonyl-[Aib24,31, Iva25, Pya(4)26, Cha27,36, Leu(Me)28, Lys(Ac)30]-PYY(23-36) [compound No. 368]
Male C57BL/6J mouse
  food intake suppression rate (%): 34.9%

## Thp(4)-NHCO-[D-Hyp24, Iva25, Pya(4)26, Cha27,36, Leu(Me)28, Lys30, Aib31]-PYY(23-36) [compound No. 358]
Male C57BL/6J mouse
  food intake suppression rate (%): 62.5%

## Carbamoyl-[D-Hyp24, Iva25, Pya(4)26, Cha27,36, Leu(Me)28, Lys30, Aib31]-PYY(23-36) [compound No. 364]
Male C57BL/6J mouse
  food intake suppression rate (%): 37.3%

## Thp(4)-CH2NHCO-[D-Hyp24, Iva25, Pya(4)26, Cha27,36, Leu(Me)28, Lys30, Aib31]-PYY(23-36) [compound No. 359]
Male C57BL/6J mouse
  food intake suppression rate (%): 43.4%

## 4-Imidazolecarbonyl-[D-Pro24, Iva25, Pya(4)26, Cha27,36, Leu(Me)28, Lys(Ac)30, Aib31]-PYY(23-36) [compound No. 365]
Male C57BL/6J mouse
  food intake suppression rate (%): 37.8%

## 4-Imidazolecarbonyl-[D-Hyp24, Iva25, Pya(4)26, Cha27, Leu(Me)28, Lys30, Aib31, Phe(2,6-Me2)36]-PYY(23-36) [compound No. 360]
Male C57BL/6J mouse
  food intake suppression rate (%): 36.7%

## 4-Imidazolecarbonyl-[D-Hyp24, Iva25, Pya(4)26, Cha27,36, Leu(Me)28, Lys(Ac)30, D-Iva31]-PYY(23-36) [compound No. 369]
Male C57BL/6J mouse
  food intake suppression rate (%): 47.8%

## Thp(4)-CO-[D-Hyp24, Iva25, Pya(4)26, Cha27,36, Leu(Me)28, Lys30, Aib31]-PYY(23-36) [compound No. 361]
Male C57BL/6J mouse
  food intake suppression rate (%): 23.3%

## [D-Hyp24, Iva25, Pya(4)26, Cha27,36, Leu(Me)28, Lys(Ac)30, Aib31]-PYY(23-36) [compound No. 373]
Male C57BL/6J mouse
  food intake suppression rate (%): 17.5%

## [(1S)-1-Carboxy-3-methylbutyl]carbamoyl-[Gln23, D-Pro24, Pya(4)26, Cha27,36, Aib28,31, Lys30]-PYY(23-36) (X4-Q[dP]R[4Pal][Cha][Aib]NK[Aib]TRQR[Cha]-NH2; SMILES CC(C)C[C@H](NC(=O)N[C@@H](CCC(N)=O)C(=O)N1CCC[C@@H]1C(=O)N[C@@H](CCCNC(=N)N)C(=O)N[C@@H](Cc1ccncc1)C(=O)N[C@@H](CC1CCCCC1)C(=O)NC(C)(C)C(=O)N[C@@H](CC(N)=O)C(=O)N[C@@H](CCCCN)C(=O)NC(C)(C)C(=O)N[C@H](C(=O)N[C@@H](CCCNC(=N)N)C(=O)N[C@@H](CCC(N)=O)C(=O)N[C@@H](CCCNC(=N)N)C(=O)N[C@@H](CC1CCCCC1)C(N)=O)[C@@H](C)O)C(=O)O) [compound No. 284]
Human Y2 receptor [1]
  RBA IC50 Ratio: 0.93
Male C57EL/6J mice
  food intake suppression rate (%): 21%
Human Y2 receptor [2]
  GBA EC50 Ratio: 1.3

## 4-Imidazolecarbonyl-[D-Hyp24, Pya(4)26, Cha27,36, Iva28, Lys(Ac)30, D-Iva31]-PYY(23-36) [compound No. 374]
Male C57BL/6J mouse
  food intake suppression rate (%): 22.6%

## (Carboxymethyl)carbamoyl-[D-Pro24, Iva25, Pya(4)26, Cha27,36, Aib28,31, Lys30]-PYY(23-36) ({(carboxymethyl)carbamoyl}-S[dP][Iva][4Pal][Cha][Aib]NK[Aib]TRQR[Cha]-NH2; SMILES CC[C@](C)(NC(=O)[C@H]1CCCN1C(=O)[C@H](CO)NC(=O)NCC(=O)O)C(=O)N[C@@H](Cc1ccncc1)C(=O)N[C@@H](CC1CCCCC1)C(=O)NC(C)(C)C(=O)N[C@@H](CC(N)=O)C(=O)N[C@@H](CCCCN)C(=O)NC(C)(C)C(=O)N[C@H](C(=O)N[C@@H](CCCNC(=N)N)C(=O)N[C@@H](CCC(N)=O)C(=O)N[C@@H](CCCNC(=N)N)C(=O)N[C@@H](CC1CCCCC1)C(N)=O)[C@@H](C)O) [compound No. 327]
Human Y2 receptor [1]
  RBA IC50 Ratio: 3.0
Male C57EL/6J mice
  food intake suppression rate (%): 58%
Human Y2 receptor [2]
  GBA EC50 Ratio: 1.6

## 4-Imidazolecarbonyl-[D-Hyp24, Iva25, Pya(4)26, Cha27,36, Leu(Me)28, Lys(Ac)30, Aib31]-PYY(23-36) [compound No. 362]
Male C57BL/6J mouse
  food intake suppression rate (%): 54.2%

## 4-Imidazolecarbonyl-[D-Hyp24, Pya(4)26, Cha27,36, Leu(Me)28, Lys30, Aib31]-PYY(23-36) [compound No. 370]
Male C57BL/6J mouse
  food intake suppression rate (%): 17.9%

Source: patent publication US9260500B2, “Peptide and use thereof” (Takeda Pharmaceutical Company Limited, priority 2009, dated 2016)
